A short description of data set [1]: Acute toxicity in mice (LD50, Bliss' method). The note with it: mouse, in vivo. As to the method: Acute toxicity was studied in mice, the compounds being administered intravenously, subcutaneously, intraperitoneally and orally.
The doses causing the death of 50% of the animals (LD50) were determined by Bliss' method, giving the following results: […]

Data set [2] has as its system spontaneous motor function in mice. The data set is described as follows: Inhibition of spontaneous motor function in mice, Winter and Flataker test (photoelectric method). It counts as in vivo. As to conditions: Mus musculus. From the text:
(§1) Thus, an inhibitory effect on spontaneous motor function in mice, a catalepsy-inducing power in rats, and antagonism towards certain apomorphine- and amphetamine-induced behavioural effects were investigated, in particular.
(§2) Regarding the spontaneous motor function in mice, an inhibitory effect of the inventive compounds was effectively observed and recorded by a photoelectric method, according to a technique similar to that of Winter and Flataker (J. Pharmacol. Exp. Ther. 1951, 101, 156-162) and by measurement of activity using an Animex apparatus.
(§3) The compounds were administered intraperitoneally or orally, respectively, 15 or 60 minutes before the recording according to the method adopted.
(§4) The values of the 50% inhibitory doses of motor function ID50 of the compounds are collected in the following table: […]

Data set [3] shares this test system. In words: Inhibition of spontaneous motor function in mice, Animex activity measurement test. It counts as in vivo. As to conditions: Mus musculus.
Excerpt: as §1, §2, §3, §4

Data set [4] relates to catalepsy in rats. The data set is described as follows: Catalepsy in rats. It counts as in vivo. The note with it: Rattus norvegicus, sc, subcutaneously, at the peak of effect. As to the method: The catalepsy-inducing function of the compounds of the invention was studied in rats. Each of the compounds was administered subcutaneously, at increasing doses, to groups of 10 rats (1 group for each dose). […] The dose giving rise to catalepsy in 50% of the animals (ED50) was determined graphically, at the peak of effect.

The subject of data set [5] is Apomorphine stereotypy. The data set is described as follows: Antagonism of apomorphine stereotypy in rats (1.25 mg/kg IV, Janssen). The format is in vivo. The note with it: Rattus norvegicus, sc, compound s.c. 60 minutes before apomorphine 1.25 mg/kg IV, read-out: ID50 S.C., Apomorphine stereotypy (1.25 mg/kg IV). The source says: (§5) Apomorphine and amphetamine induce stereotyped movements in rats which are antagonized by neuroleptics. […]
(§6) These different experimental conditions made it possible to establish the doses which antagonize stereotypy by 50% (ID50), judged on the basis of the various components of the movements which were observed.

In data set [6] the test system is Apomorphine stereotypy. The data set is described as follows: Antagonism of apomorphine stereotypy in rats (0.5 mg/kg SC, derived from Puech). The format is in vivo. As to conditions: Rattus norvegicus, ip, compound i.p. 30 minutes before apomorphine 0.5 mg/kg SC, read-out: ID50 I.P., Apomorphine stereotypy (0.5 mg/kg SC).
Excerpt: as §5, §6

The test system of data set [7] is dexamphetamine stereotypy. In words: Antagonism of dexamphetamine stereotypy in rats (Janssen amphetamine test). It counts as in vivo. The note with it: Rattus norvegicus, sc, 1 h, compound s.c. simultaneously with dexamphetamine 10 mg/kg i.v., effect at 60 minutes, read-out: ID50 S.C., Janssen amphetamine test. As to the method:
Apomorphine and amphetamine induce stereotyped movements in rats which are antagonized by neuroleptics. Different doses of apomorphine administered by different routes were applied to produce these movements. In the test using dexamphetamine, carried out according to the technique of Janssen (Arz. Forsch. 1961, 11, 932-938), 10 mg/kg of dexamphetamine were injected intravenously, the test product being injected simultaneously subcutaneously, and the effect being measured 60 minutes after these injections. These different experimental conditions made it possible to establish the doses which antagonize stereotypy by 50% (ID50), judged on the basis of the various components of the movements which were observed.

Data set [8] has as its system apomorphine-induced climbing behavior. In words: Antagonism of apomorphine-induced climbing behavior in mice. It counts as in vivo. The note with it: Mus musculus, ip, compound i.p. 30 minutes before apomorphine 1 mg/kg s.c., read-out: ID50 I.P., apomorphine-induced climbing behavior. As to the method:
Another test using apomorphine was applied, based on the observation of the climbing behavior which it induces in mice, this behavior being antagonized by neuroleptics, according to Puech (Eur. J. Pharmacol. 1978, 50, 291-300).
The compound was administered intraperitoneally 30 minutes before the apomorphine (1 mg/kg subcutaneously), and the antagonism was assessed 45 to 50 minutes after the administration of the compound.

Setting [9] is: ip, read-out: Lethal doses50 i.p.
[10] abbreviates: iv, read-out: Lethal doses50 i.v.
The mark [11] stands for this setting: sc, read-out: Lethal doses50 s.c.
Where [12] appears, read: ip, read-out: ID50 i.p., Winter and Flataker test.
[13] abbreviates: po, read-out: ID50 p.o., Winter and Flataker test.
The mark [14] stands for this setting: ip, read-out: ID50 i.p., Animex activity measurement test.
Where [15] appears, read: po, read-out: ID50 p.o., Animex activity measurement test.

Where two headings read alike, the source gives them in different places.

On to `O=C(NCC1CCCN1CC1=CCCCC1)c1cc(Cl)cc2c1OCC2` (stereo not shown) [Ex 14, N-(1-Cyclohexenylmethyl-2-pyrrolidinylmethyl)-5-chloro-2,3-dihydrobenzofuran-7-carboxamide], for which the LD50 is 69.6 to 83.3 mg/kg in data set [1] (setting [9]); 24.8 mg/kg in data set [1] (setting [10]); 350 to 354 mg/kg in data set [1] (po, orally, read-out: Lethal doses50 orally); 412 to 434 mg/kg in data set [1] (setting [11]). Further, the ED50 in data set [2] (setting [12]) came to 2.1 mg/kg; in data set [2] (setting [13]) it was 27 mg/kg; in data set [3] (setting [14]), 1.7 mg/kg; in data set [3] (setting [15]), 25 mg/kg; in data set [4] it was 2.7 mg/kg; in data set [5], 0.29 mg/kg. Also, the ED50 was 0.31 to 0.41 mg/kg in data set [6], 0.12 mg/kg in data set [7] and 0.27 to 0.29 mg/kg in data set [8].
With `CC1Cc2cc(Cl)cc(C(=O)NCC3CCCN3CC3=CCCCC3)c2O1` (stereo not shown) [Ex 15, Neutral ethanedisulphonate of N-(1-cyclohexenylmethyl-2-pyrrolidinylmethyl)-5-chloro-2-methyl-2,3-dihydrobenzofuran-7-carboxamide], the LD50 is 232 to 234 mg/kg in data set [1] (setting [9]), 31.1 to 34.7 mg/kg in data set [1] (setting [10]) and 1410 mg/kg in data set [1] (setting [11]). The ED50 in data set [2] (setting [12]) came out at 3.5 mg/kg; in data set [2] (setting [13]) it was 43.4 mg/kg; in data set [3] (setting [14]), 2.2 mg/kg; in data set [3] (setting [15]) it was 23.2 mg/kg; in data set [4], 1.35 mg/kg; in data set [5], 0.41 mg/kg. Also, the ED50 is 0.58 to 0.59 mg/kg in data set [6], 0.18 mg/kg in data set [7] and 0.28 to 0.34 mg/kg in data set [8].
